Data: patent US20090258850A1, “STABILIZED THERAPEUTIC COMPOSITIONS AND FORMULATIONS” (priority 2007, published 2009)

B1: Peg-G-CSF: Peg-G-CSF injected IP in mice (protein, UniProt P09919 31-207, looked up)
Granulocyte …: TPLGPASSLPQSFLLKCLEQVRKIQGDGAALQEKLVSECATYKLCHPEELVLLGHSLGIPWAPLSSCPSQALQLAGCLSQLHSGLFLYQGLLQALEGISPELGPTLDTLQLDVADFATTIWQQMEELGMAPALQPTQGAMPAFASAFQRRAGGVLVASHLQSFLEVSYRVLRHLAQP
modifications: PEGylated
notes: Peg-G-CSF injected IP in mice
B2: TPO: TPO injected IP in mice; promotes CFU-S reconstitution (protein, UniProt P40226 22-356, looked up)
Thrombopoietin: SPVAPACDPRLLNKLLRDSHLLHSRLSQCPDVDPLSIPVLLPAVDFSLGEWKTQTEQSKAQDILGAVSLLLEGVMAARGQLEPSCLSSLLGQLSGQVRLLLGALQGLLGTQLPLQGRTTAHKDPNALFLSLQQLLRGKVRFLLLVEGPTLCVRRTLPTTAVPSSTSQLLTLNKFPNRTSGLLETNFSVTARTAGPGLLSRLQGFRVKITPGQLNQTSRSPVQISGYLNRTHGPVNGTHGLFAGTSLQTLEASDISPGAFNKGSLAFNLQGGLPPSPSLAPDGHTPFPPSPALPTTHGSPPQLHPLFPDPSTTMPNSTAPHPVTMYPHPRNLSQET

Columns and labels:
[1] = system: BALB/c mice exposed to 6 Gy TBI; assay: Radioprotective effect in BALB/c mice after midlethal 6 Gy TBI; assay type: in vivo
Experimental: (§1) Combination Treatment with androst-5-ene-3β,17β-diol formulation and TPO. For direct measurements of the radioprotective effect of 5-AED, BALB/c mice were exposed to a midlethal dose of 6 Gy TBI. Two hours after TBI, mice were injected IM with 40 mg/kg 5-AED or the carrier as placebo, with or without 0.225 μg TPO or 10 μg Peg-G-CSF IP. Radioprotective effects of 5-AED on immature repopulating cell subsets were assessed by exposing BALB/c donor mice to 3 fractions of 2 Gy TBI, separated by 24 hours, and treatment with 40 mg/Kg/d 5-AED or the carrier IM, or 0.7 μg TPO IP after each fraction or a single injection of 10 μg Peg-G-CSF IP after the first fraction. Twenty four hours after the last fraction, bone marrow of donor mice was examined for immature cell content per femur using the marrow repopulating ability (MRA day 13) assay and the CFU-S day 12 after transplantation in 8 Gy irradiated mice.

[2] = system: immature repopulating cells in bone marrow of BALB/c donor mice; assay: Immature repopulating cell subsets (CFU-S day 12, MRA day 13) after fractionated 3x2 Gy TBI of BALB/c donor mice; assay type: in vivo; conditions: fractionated 3×2 Gy TBI; for increase in CFU-S day 12 relative to radiation controls: 40 mg/Kg/d 5-AED IM, 0.7 μg TPO IP after each fraction
Experimental: as §1

[3] = system: rhesus monkeys subjected to 6 Gy TBI; conditions: in vivo
non-irradiated monkeys = conditions: 15 mg/Kg/d i.m. x5 days, no TBI
Experimental: Primates used in this study were purpose bred rhesus monkeys (Macaca Mulatta), weighing 2.5 to 4.0 Kg each and aged 2 to 3 years. 5-Androstene-3β,17β-diol (5-AED), prepared as a 100 mg/mL aqueous suspension using 7.4 mM sodium phosphate buffer, pH 6.0, containing 0.5% polysorbate 80, 0.02% benzalkonium chloride and 4.8% mannitol and its vehicle, consisting of the identical formulation without 5-AED, was administered intramuscularly (i.m.) at a dose of 15 mg/kg/d (150 μL/Kg/d), for 5 consecutive days. […] 5-AED and vehicle were administered by deep intramuscular injections into alternating left and right m. vastus lateralis. In the second study, 10 animals (3 males and 2 females in each group) received either 15 mg/Kg/d (150 μL/Kg/d), 5-AED in a stabilized formulation or vehicle for 5 consecutive days, but were not subjected to TBI.
Clinical pathology was conducted as follows: Bone marrow was aspirated under neurolept anesthesia using Ketalar (Apharmo, Arnhem, the Netherlands) and Domitor (Pfizer, Capelle a/d lJssel, The Netherlands). Small bone marrow aspirates for analytical purposes were taken from the shafts of the femurs or humeri using pediatric spinal needles and collected in bottles containing 2 mL HEPES buffered Hanks' balanced salt solution (HBBS) with 200 IU sodium heparin/mL (Leo Pharmaceutical Products, Weesp, the Netherlands). Low-density cells were isolated using Lymphoprep (density 1.077, Fresenius, Oslo, Norway) separation. Cells were plated in 35-mm dishes (Falcon 1008, Becton Dickinson, Leiden, The Netherlands) in 1 mL enriched Dulbecco's medium containing 0.8% methylcellulose, 5% FCS, and additives. […] Colony counts were calculated per mL of bone marrow aspirated using the recovery of cells over the Ficoll density gradient. […] Complete blood cell counts were measured daily using an ABC-vet animal blood counter (Scil, ABX diagnostics, Montpellier, France). […] Measurements were done using a FACSCalibur (Becton Dickinson, Leiden, The Netherlands) and 50,000 events were collected in duplicate and analyzed using the CellQuest (Becton Dickinson) software. […]

| Molecule | multilineage recovery (white blood cells, platelets, red blood cells, bone marrow cellularity, colony forming cells) ([1]; 40 mg/kg IM 2 hours after 6 Gy TBI, 14 days post-TBI vs placebo) | effect of increasing the dose on multilineage recovery ([1]; dose up to 200 mg/kg) | increase in CFU-S day 12 relative to radiation controls [2] | MRA, expressed as GM-CFU per femur at 13 days after transplantation ([2]; 40 mg/Kg/d IM, range 0-5785) | bone marrow cellularity [3] | day reticulocytes reached levels >0.05×10^9/mL in peripheral blood [3] | direct local or systemic toxic effects [3] | edema [3] | increase in body weight due to fluid retention [3] | increase of CD34+ cells in BM in comparison to HERF-418 treated monkeys [3] | neutrophil recovery [3] | reduction of the period of leukopenia [3] | shortening of the time to transfusion-independence [3] | transfusions needed to maintain platelets levels of >40×10^6/mL [3] | day of maximum neutrophilic granulocyte increase after initiation of the treatment (non-irradiated monkeys) | effect on other hematopoietic lineages, bone marrow cellularity and progenitor cell content (non-irradiated monkeys) | increase from baseline levels in neutrophilic granulocytes in the peripheral blood (non-irradiated monkeys; n=5) | effect on CFU-S day 12 ([2]; single injection 10 μg Peg-G-CSF IP after first fraction) |
| --- | --- | --- | --- | --- | --- | --- | --- | --- | --- | --- | --- | --- | --- | --- | --- | --- | --- | --- |
| C[C@]12CC[C@H]3[C@@H](CC=C4C[C@@H](O)CC[C@@]43C)[C@@H]1CC[C@@H]2O [5-AED, androst-5-ene-3β,17β-diol] | accelerated multilineage recovery | did not augment this effect | 5 fold | 1002 colonies | 8.7±5.3 ×10^6 cells/mL bone marrow aspirate | 19.0±1.1 day | not observed | transient edema, which resolved without sequela | up to 13.6% | 90 fold | accelerated neutrophil recovery | 4 days | 4 days | 1.3±0.5 | 2 days | did not affect | 3.6 fold |  |
| B1 |  |  |  |  |  |  |  |  |  |  |  |  |  |  |  |  |  | did not affect |
| B2 |  |  | 7 fold |  |  |  |  |  |  |  |  |  |  |  |  |  |  |  |
